ChEMBL document CHEMBL1201862, “PubChem BioAssay data set” (2004)
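All cell lines were grown in 96-well plates and treated with compound for 48 hours. GI50 = concentration required for 50% inhibition of growth.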 Calls of active or inactive are those of the source. No stated cut-off is given here; in the data, active = GI50 up to about 1.1 µM and inactive = higher.

Legend:
Test in all cases: inhibition of tumour cell growth, NCI panel, 48 h
[1] = system: 786-0
[2] = system: A498
[3] = system: A549
[4] = system: ACHN
[5] = system: CAKI-1
[6] = system: CCRF-CEM
[7] = system: COLO 205
[8] = system: DMS-273
[9] = system: EKVX
[10] = system: HCC 2998
[11] = system: HCT-116
[12] = system: HCT-15
[13] = system: HL-60
[14] = system: HOP-62
[15] = system: HOP-92
[16] = system: HT-29
[17] = system: IGROV-1
[18] = system: K562
[19] = system: KM-20L2
[20] = system: KM12
[21] = system: LOX IMVI
[22] = system: M14
[23] = system: M19-MEL
[24] = system: MOLT-4
[25] = system: Malme-3M
[26] = system: NCI-H226
[27] = system: NCI-H23
[28] = system: NCI-H460
[29] = system: NCI-H522
[30] = system: OVCAR-3
[31] = system: OVCAR-4
[32] = system: OVCAR-5
[33] = system: OVCAR-8
[34] = system: RPMI-8226
[35] = system: RXF 393
[36] = system: SF-268
[37] = system: SF-295
[38] = system: SF-539
[39] = system: SK-MEL-28
[40] = system: SK-MEL-2
[41] = system: SK-MEL-5
[42] = system: SK-OV-3
[43] = system: SN12C
[44] = system: SNB-19
[45] = system: SNB-75
[46] = system: SNB-78
[47] = system: SR
[48] = system: SW-620
[49] = system: TK-10
[50] = system: U-251
[51] = system: UACC-257
[52] = system: UACC-62
[53] = system: UO-31
[54] = system: BT-549
[55] = system: DU-145
[56] = system: Hs-578T
[57] = system: MCF7
[58] = system: MDA-MB-231
[59] = system: MDA-MB-435
[60] = system: MDA-N
[61] = system: NCI/ADR-RES
[62] = system: PC-3
[63] = system: T47D

How did the GI50 [1] turn out when `CN(C)C1(C#N)CCC2(CC1)OCCO2` was run?
Its GI50 is > 100 µM (inactive).

And the GI50 [2]?
The GI50 was > 100 µM (inactive).

What about the GI50 [3] of the same compound?
Its GI50 is > 100 µM (inactive).

And the GI50 [4]?
The GI50 was > 100 µM (inactive).

And the GI50 [5]?
The GI50 was > 100 µM (inactive).

What about the GI50 [6] of the same compound?
Its GI50 is > 100 µM (inactive).

What about the GI50 [7] of the same compound?
Its GI50 is > 100 µM (inactive).

What about the GI50 [8] of the same compound?
Its GI50 is > 100 µM (inactive).

What about the GI50 [9] of the same compound?
The GI50 was > 100 µM (inactive).

What about the GI50 [10] of the same compound?
The GI50 was > 100 µM (inactive).

And the GI50 [11]?
Its GI50 is > 100 µM (inactive).

And the GI50 [12]?
Its GI50 is > 100 µM.

And the GI50 [13]?
The GI50 was > 100 µM (inactive).

What about the GI50 [14] of the same compound?
Its GI50 is > 100 µM (inactive).

What about the GI50 [15] of the same compound?
The GI50 was > 100 µM (inactive).

And the GI50 [16]?
The GI50 was > 100 µM (inactive).

And the GI50 [17]?
Its GI50 is > 100 µM (inactive).

And the GI50 [18]?
The GI50 was > 100 µM (inactive).

And the GI50 [19]?
Its GI50 is > 100 µM (inactive).

And the GI50 [20]?
The GI50 was > 100 µM (inactive).

And the GI50 [21]?
The GI50 was > 100 µM (inactive).

What about the GI50 [22] of the same compound?
The GI50 was > 100 µM (inactive).

And the GI50 [23]?
Its GI50 is > 100 µM (inactive).

What about the GI50 [24] of the same compound?
Its GI50 is > 100 µM (inactive).

And the GI50 [25]?
Its GI50 is > 100 µM (inactive).

And the GI50 [26]?
The GI50 was > 100 µM (inactive).

What about the GI50 [27] of the same compound?
Its GI50 is > 100 µM (inactive).

And the GI50 [28]?
The GI50 was > 100 µM (inactive).

What about the GI50 [29] of the same compound?
Its GI50 is > 100 µM (inactive).

What about the GI50 [30] of the same compound?
The GI50 was > 100 µM (inactive).

And the GI50 [31]?
Its GI50 is > 100 µM (inactive).

What about the GI50 [32] of the same compound?
The GI50 was > 100 µM (inactive).

What about the GI50 [33] of the same compound?
Its GI50 is > 100 µM (inactive).

What about the GI50 [34] of the same compound?
The GI50 was > 100 µM (inactive).

What about the GI50 [35] of the same compound?
The GI50 was > 100 µM (inactive).

What about the GI50 [36] of the same compound?
Its GI50 is > 100 µM (inactive).

What about the GI50 [37] of the same compound?
Its GI50 is > 100 µM (inactive).

What about the GI50 [38] of the same compound?
Its GI50 is > 100 µM (inactive).

And the GI50 [39]?
Its GI50 is > 100 µM (inactive).

And the GI50 [40]?
Its GI50 is > 100 µM (inactive).

What about the GI50 [41] of the same compound?
The GI50 was > 100 µM (inactive).

And the GI50 [42]?
The GI50 was > 100 µM (inactive).

What about the GI50 [43] of the same compound?
The GI50 was > 100 µM (inactive).

And the GI50 [44]?
Its GI50 is > 100 µM (inactive).

What about the GI50 [45] of the same compound?
The GI50 was > 100 µM (inactive).

What about the GI50 [46] of the same compound?
Its GI50 is > 100 µM (inactive).

What about the GI50 [47] of the same compound?
The GI50 was > 100 µM (inactive).

What about the GI50 [48] of the same compound?
Its GI50 is > 100 µM (inactive).

What about the GI50 [49] of the same compound?
The GI50 was > 100 µM (inactive).

What about the GI50 [50] of the same compound?
The GI50 was > 100 µM (inactive).

And the GI50 [51]?
Its GI50 is > 100 µM (inactive).

What about the GI50 [52] of the same compound?
The GI50 was > 100 µM (inactive).

And the GI50 [53]?
Its GI50 is > 100 µM (inactive).

With `N#Cc1c(-c2ccccc2)c(/N=N/c2ccc(F)cc2)c(=O)n2c1[nH]c1ccccc12` as the compound, how does the GI50 [1] read?
The GI50 was 3.65 µM (inactive).

What about the GI50 [2] of the same compound?
Its GI50 is 8.02 µM (inactive).

And the GI50 [3]?
Its GI50 is 3.08 µM (inactive).

And the GI50 [4]?
The GI50 was 5.64 µM (inactive).

What about the GI50 [54] of the same compound?
The GI50 was 8.85 µM (inactive).

What about the GI50 [5] of the same compound?
The GI50 was 3.92 µM (inactive).

And the GI50 [6]?
The GI50 was 1.26 µM (inactive).

And the GI50 [7]?
The GI50 was 3.43 µM (inactive).

And the GI50 [55]?
The GI50 was 4.48 µM (inactive).

What about the GI50 [9] of the same compound?
The GI50 was 2.45 µM (inactive).

And the GI50 [10]?
The GI50 was 6.24 µM (inactive).

What about the GI50 [11] of the same compound?
Its GI50 is 2.03 µM (inactive).

And the GI50 [12]?
The GI50 was 3.33 µM.

And the GI50 [13]?
The GI50 was 1.46 µM (inactive).

And the GI50 [14]?
Its GI50 is 6.15 µM (inactive).

And the GI50 [15]?
The GI50 was 2.18 µM (inactive).

And the GI50 [16]?
Its GI50 is 2.92 µM (inactive).

And the GI50 [56]?
The GI50 was 4.43 µM (inactive).

What about the GI50 [17] of the same compound?
The GI50 was 2.69 µM (inactive).

What about the GI50 [18] of the same compound?
The GI50 was 3.18 µM (inactive).

What about the GI50 [20] of the same compound?
The GI50 was 3.15 µM (inactive).

And the GI50 [21]?
The GI50 was 9.35 µM (inactive).

And the GI50 [22]?
Its GI50 is 3.54 µM (inactive).

What about the GI50 [57] of the same compound?
The GI50 was 4.51 µM (inactive).

And the GI50 [58]?
The GI50 was 5.21 µM (inactive).

And the GI50 [59]?
The GI50 was 4.7 µM (inactive).

And the GI50 [60]?
The GI50 was 4.17 µM (inactive).

What about the GI50 [24] of the same compound?
The GI50 was 2.3 µM (inactive).

And the GI50 [25]?
The GI50 was 7.6 µM (inactive).

And the GI50 [26]?
The GI50 was 7.28 µM (inactive).

What about the GI50 [27] of the same compound?
The GI50 was 5.28 µM (inactive).

And the GI50 [28]?
The GI50 was 2.31 µM (inactive).

What about the GI50 [29] of the same compound?
Its GI50 is 2.18 µM (inactive).

And the GI50 [61]?
Its GI50 is 3 µM (inactive).

What about the GI50 [30] of the same compound?
The GI50 was 2.14 µM (inactive).

What about the GI50 [31] of the same compound?
The GI50 was 4.09 µM (inactive).

And the GI50 [32]?
Its GI50 is 5.94 µM (inactive).

And the GI50 [33]?
Its GI50 is 2.34 µM (inactive).

And the GI50 [62]?
The GI50 was 3.4 µM (inactive).

What about the GI50 [34] of the same compound?
The GI50 was 0.708 µM (active).

What about the GI50 [35] of the same compound?
Its GI50 is 10.4 µM (inactive).

And the GI50 [36]?
Its GI50 is 6.43 µM (inactive).

What about the GI50 [37] of the same compound?
The GI50 was 5.25 µM (inactive).

And the GI50 [38]?
Its GI50 is 10.9 µM (inactive).

And the GI50 [39]?
The GI50 was 8.39 µM (inactive).

And the GI50 [40]?
The GI50 was 18.2 µM (inactive).

And the GI50 [41]?
The GI50 was 1.53 µM (inactive).

And the GI50 [42]?
The GI50 was 4.86 µM (inactive).

What about the GI50 [43] of the same compound?
Its GI50 is 1.84 µM (inactive).

What about the GI50 [44] of the same compound?
Its GI50 is 5.05 µM (inactive).

And the GI50 [45]?
The GI50 was 13.2 µM (inactive).

What about the GI50 [47] of the same compound?
The GI50 was 3.81 µM (inactive).

What about the GI50 [48] of the same compound?
Its GI50 is 4.28 µM (inactive).

What about the GI50 [63] of the same compound?
Its GI50 is 4.05 µM (inactive).

What about the GI50 [49] of the same compound?
The GI50 was 5.57 µM (inactive).

And the GI50 [50]?
The GI50 was 3.66 µM (inactive).

What about the GI50 [51] of the same compound?
The GI50 was 3.21 µM (inactive).

And the GI50 [52]?
Its GI50 is 4.82 µM (inactive).

What about the GI50 [53] of the same compound?
Its GI50 is 2.97 µM (inactive).
